Molecular target: CB2 receptor (hCB2) (Homo sapiens, UniProt P34972)
Assay: competitive radioligand binding, [3H]CP-55, […] displacement

CB2 receptor (hCB2), sequence (P34972 whole entry): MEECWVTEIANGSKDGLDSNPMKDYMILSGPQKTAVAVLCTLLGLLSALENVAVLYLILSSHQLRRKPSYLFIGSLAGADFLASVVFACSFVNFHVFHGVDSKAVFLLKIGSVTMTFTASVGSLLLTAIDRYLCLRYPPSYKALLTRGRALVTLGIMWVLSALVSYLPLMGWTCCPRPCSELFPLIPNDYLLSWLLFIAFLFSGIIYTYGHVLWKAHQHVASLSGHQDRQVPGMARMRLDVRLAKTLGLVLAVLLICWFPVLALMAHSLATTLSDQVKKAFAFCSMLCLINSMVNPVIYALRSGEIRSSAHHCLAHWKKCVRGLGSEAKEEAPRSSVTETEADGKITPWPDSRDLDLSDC

Ki: 41.2 µM
SMILES: C=C(C)[C@@H]1CC[C@]2(C(=O)O)CC[C@]3(C)[C@H](CC[C@@H]4[C@@]5(C)CC[C@H](O)C(C)(C)[C@@H]5CC[C@]43C)[C@@H]12 [BA, Betulinic acid]

Reference: article PMC4924623 (Molecular cancer therapeutics, 2012)
